The kinase profiling compilation of Christmann-Franck et al. (2016)

Legend:
[1] = system: ABL1 (human), P00519 [M351T]; assay: KINOMEscan competition binding; settings: compound 10.0 µM
ADCK4 (human) = ADCK4 (human) (UniProt Q96D53); assay: KINOMEscan competition binding; settings: compound 10.0 µM
CDK15 (human) = CDK15 (human) (UniProt Q96Q40); assay: KINOMEscan competition binding; settings: compound 10.0 µM
CIT (human) = CIT (human) (UniProt O14578); assay: KINOMEscan competition binding; settings: compound 10.0 µM
CPK1 (P.falciparum) = assay: KINOMEscan competition binding; settings: compound 10.0 µM
DMPK (human) = DMPK (human) (UniProt Q09013); assay: KINOMEscan competition binding; settings: compound 10.0 µM
DYRK2 (human) = DYRK2 (human) (UniProt Q92630); assay: KINOMEscan competition binding; settings: compound 10.0 µM
EPHB6 (human) = EPHB6 (human) (UniProt O15197); assay: KINOMEscan competition binding; settings: compound 10.0 µM
ERN1 (human) = ERN1 (human) (UniProt O75460); assay: KINOMEscan competition binding; settings: compound 10.0 µM
GRK4 (human) = GRK4 (human) (UniProt P32298); assay: KINOMEscan competition binding; settings: compound 10.0 µM
INSR (human) = INSR (human) (UniProt P06213); assay: KINOMEscan competition binding; settings: compound 10.0 µM
LCK (human) = LCK (human) (UniProt P06239); assay: KINOMEscan competition binding; settings: compound 10.0 µM
LIMK2 (human) = LIMK2 (human) (UniProt P53671); assay: KINOMEscan competition binding; settings: compound 10.0 µM
[2] = system: LRRK2 (human), Q5S007 [G2019S]; assay: KINOMEscan competition binding; settings: compound 10.0 µM
MAP3K9 (human) = MAP3K9 (human) (UniProt P80192); assay: KINOMEscan competition binding; settings: compound 10.0 µM
MAP4K2 (human) = MAP4K2 (human) (UniProt Q12851); assay: KINOMEscan competition binding; settings: compound 10.0 µM
MAP4K4 (human) = MAP4K4 (human) (UniProt O95819); assay: KINOMEscan competition binding; settings: compound 10.0 µM
MYO3A (human) = MYO3A (human) (UniProt Q8NEV4); assay: KINOMEscan competition binding; settings: compound 10.0 µM
NEK6 (human) = NEK6 (human) (UniProt Q9HC98); assay: KINOMEscan competition binding; settings: compound 10.0 µM
NUAK1 (human) = NUAK1 (human) (UniProt O60285); assay: KINOMEscan competition binding; settings: compound 10.0 µM
PAK4 (human) = PAK4 (human) (UniProt O96013); assay: KINOMEscan competition binding; settings: compound 10.0 µM
PIK3C2B (human) [3] = target: PIK3C2B (human) (UniProt O00750); assay: KINOMEscan competition binding; settings: compound 10.0 µM
PKN2 (human) = PKN2 (human) (UniProt Q16513); assay: KINOMEscan competition binding; settings: compound 10.0 µM
PRKAA2 (human) = PRKAA2 (human) (UniProt P54646); assay: KINOMEscan competition binding; settings: compound 10.0 µM
PRKCD (human) = PRKCD (human) (UniProt Q05655); assay: KINOMEscan competition binding; settings: compound 10.0 µM
PRKG1 (human) = PRKG1 (human) (UniProt Q13976); assay: KINOMEscan competition binding; settings: compound 10.0 µM
ROS1 (human) = ROS1 (human) (UniProt P08922); assay: KINOMEscan competition binding; settings: compound 10.0 µM
RPS6KA5 KD1 (human) = RPS6KA5 KD1 (human) (UniProt O75582); assay: KINOMEscan competition binding; settings: compound 10.0 µM
STK25 (human) = STK25 (human) (UniProt O00506); assay: KINOMEscan competition binding; settings: compound 10.0 µM
STK32A (human) = STK32A (human) (UniProt Q8WU08); assay: KINOMEscan competition binding; settings: compound 10.0 µM
STK38 (human) = STK38 (human) (UniProt Q15208); assay: KINOMEscan competition binding; settings: compound 10.0 µM
SYK (human) = SYK (human) (UniProt P43405); assay: KINOMEscan competition binding; settings: compound 10.0 µM
PI4KA (human) = PI4KA (human) (UniProt P42356)
BTK (human) = BTK (human) (UniProt Q06187); assay: KINOMEscan competition binding; settings: compound 10.0 µM
CSNK1A1 (human) = CSNK1A1 (human) (UniProt P48729); assay: KINOMEscan competition binding; settings: compound 10.0 µM
MTOR (human) = MTOR (human) (UniProt P42345); assay: KINOMEscan competition binding; settings: compound 10.0 µM
SRPK3 (human) = SRPK3 (human) (UniProt Q9UPE1); assay: KINOMEscan competition binding; settings: compound 10.0 µM
PI4KB (human) = PI4KB (human) (UniProt Q9UBF8)
PIK3C2A (human) = PIK3C2A (human) (UniProt O00443)
PIK3C2B (human) [4] = target: PIK3C2B (human) (UniProt O00750)
PIK3C3 (human) = PIK3C3 (human) (UniProt Q8NEB9)

Chain of PIK3C2B (human) (O00750 whole entry, looked up): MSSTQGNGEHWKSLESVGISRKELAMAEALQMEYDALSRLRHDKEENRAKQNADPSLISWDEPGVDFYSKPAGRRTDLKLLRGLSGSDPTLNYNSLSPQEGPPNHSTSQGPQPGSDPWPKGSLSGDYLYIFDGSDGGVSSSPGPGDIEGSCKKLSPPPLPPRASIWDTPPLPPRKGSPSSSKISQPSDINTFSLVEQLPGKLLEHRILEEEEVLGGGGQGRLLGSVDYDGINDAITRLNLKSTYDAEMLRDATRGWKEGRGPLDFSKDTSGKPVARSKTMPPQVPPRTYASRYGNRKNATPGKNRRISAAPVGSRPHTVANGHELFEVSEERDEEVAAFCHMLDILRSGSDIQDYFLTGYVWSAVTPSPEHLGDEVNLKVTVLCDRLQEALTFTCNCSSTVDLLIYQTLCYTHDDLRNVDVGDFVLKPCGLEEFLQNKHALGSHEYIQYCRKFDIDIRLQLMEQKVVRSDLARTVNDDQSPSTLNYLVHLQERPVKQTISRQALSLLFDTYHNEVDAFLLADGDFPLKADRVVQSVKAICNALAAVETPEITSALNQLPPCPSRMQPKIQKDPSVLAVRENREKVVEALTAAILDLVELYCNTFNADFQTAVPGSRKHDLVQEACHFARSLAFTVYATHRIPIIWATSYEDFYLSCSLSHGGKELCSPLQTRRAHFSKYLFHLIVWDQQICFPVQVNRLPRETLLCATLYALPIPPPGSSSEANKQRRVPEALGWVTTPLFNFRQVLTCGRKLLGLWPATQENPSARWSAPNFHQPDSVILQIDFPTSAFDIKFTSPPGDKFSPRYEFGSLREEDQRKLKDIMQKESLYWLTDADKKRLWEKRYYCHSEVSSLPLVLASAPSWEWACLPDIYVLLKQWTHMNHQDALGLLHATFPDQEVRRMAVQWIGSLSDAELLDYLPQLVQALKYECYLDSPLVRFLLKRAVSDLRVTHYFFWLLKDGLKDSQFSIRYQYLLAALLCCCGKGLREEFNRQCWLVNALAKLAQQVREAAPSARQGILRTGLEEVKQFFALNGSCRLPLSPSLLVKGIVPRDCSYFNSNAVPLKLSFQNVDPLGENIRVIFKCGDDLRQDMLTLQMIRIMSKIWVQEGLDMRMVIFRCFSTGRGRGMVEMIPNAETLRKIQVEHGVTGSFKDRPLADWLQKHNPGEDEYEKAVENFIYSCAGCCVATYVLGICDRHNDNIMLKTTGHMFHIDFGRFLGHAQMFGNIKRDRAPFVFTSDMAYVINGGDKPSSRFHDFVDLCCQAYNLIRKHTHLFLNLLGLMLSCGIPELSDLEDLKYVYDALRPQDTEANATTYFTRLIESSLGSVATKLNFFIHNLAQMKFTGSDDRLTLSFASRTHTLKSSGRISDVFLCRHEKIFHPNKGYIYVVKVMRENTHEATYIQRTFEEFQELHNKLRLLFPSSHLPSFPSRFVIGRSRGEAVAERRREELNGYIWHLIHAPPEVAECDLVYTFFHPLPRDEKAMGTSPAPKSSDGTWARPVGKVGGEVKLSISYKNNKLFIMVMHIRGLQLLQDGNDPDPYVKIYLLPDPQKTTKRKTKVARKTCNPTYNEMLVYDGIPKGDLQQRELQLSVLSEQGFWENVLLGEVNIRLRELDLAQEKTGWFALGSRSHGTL
Chain of LRRK2 (human), Q5S007 [G2019S] (Q5S007 whole entry G2019S, looked up): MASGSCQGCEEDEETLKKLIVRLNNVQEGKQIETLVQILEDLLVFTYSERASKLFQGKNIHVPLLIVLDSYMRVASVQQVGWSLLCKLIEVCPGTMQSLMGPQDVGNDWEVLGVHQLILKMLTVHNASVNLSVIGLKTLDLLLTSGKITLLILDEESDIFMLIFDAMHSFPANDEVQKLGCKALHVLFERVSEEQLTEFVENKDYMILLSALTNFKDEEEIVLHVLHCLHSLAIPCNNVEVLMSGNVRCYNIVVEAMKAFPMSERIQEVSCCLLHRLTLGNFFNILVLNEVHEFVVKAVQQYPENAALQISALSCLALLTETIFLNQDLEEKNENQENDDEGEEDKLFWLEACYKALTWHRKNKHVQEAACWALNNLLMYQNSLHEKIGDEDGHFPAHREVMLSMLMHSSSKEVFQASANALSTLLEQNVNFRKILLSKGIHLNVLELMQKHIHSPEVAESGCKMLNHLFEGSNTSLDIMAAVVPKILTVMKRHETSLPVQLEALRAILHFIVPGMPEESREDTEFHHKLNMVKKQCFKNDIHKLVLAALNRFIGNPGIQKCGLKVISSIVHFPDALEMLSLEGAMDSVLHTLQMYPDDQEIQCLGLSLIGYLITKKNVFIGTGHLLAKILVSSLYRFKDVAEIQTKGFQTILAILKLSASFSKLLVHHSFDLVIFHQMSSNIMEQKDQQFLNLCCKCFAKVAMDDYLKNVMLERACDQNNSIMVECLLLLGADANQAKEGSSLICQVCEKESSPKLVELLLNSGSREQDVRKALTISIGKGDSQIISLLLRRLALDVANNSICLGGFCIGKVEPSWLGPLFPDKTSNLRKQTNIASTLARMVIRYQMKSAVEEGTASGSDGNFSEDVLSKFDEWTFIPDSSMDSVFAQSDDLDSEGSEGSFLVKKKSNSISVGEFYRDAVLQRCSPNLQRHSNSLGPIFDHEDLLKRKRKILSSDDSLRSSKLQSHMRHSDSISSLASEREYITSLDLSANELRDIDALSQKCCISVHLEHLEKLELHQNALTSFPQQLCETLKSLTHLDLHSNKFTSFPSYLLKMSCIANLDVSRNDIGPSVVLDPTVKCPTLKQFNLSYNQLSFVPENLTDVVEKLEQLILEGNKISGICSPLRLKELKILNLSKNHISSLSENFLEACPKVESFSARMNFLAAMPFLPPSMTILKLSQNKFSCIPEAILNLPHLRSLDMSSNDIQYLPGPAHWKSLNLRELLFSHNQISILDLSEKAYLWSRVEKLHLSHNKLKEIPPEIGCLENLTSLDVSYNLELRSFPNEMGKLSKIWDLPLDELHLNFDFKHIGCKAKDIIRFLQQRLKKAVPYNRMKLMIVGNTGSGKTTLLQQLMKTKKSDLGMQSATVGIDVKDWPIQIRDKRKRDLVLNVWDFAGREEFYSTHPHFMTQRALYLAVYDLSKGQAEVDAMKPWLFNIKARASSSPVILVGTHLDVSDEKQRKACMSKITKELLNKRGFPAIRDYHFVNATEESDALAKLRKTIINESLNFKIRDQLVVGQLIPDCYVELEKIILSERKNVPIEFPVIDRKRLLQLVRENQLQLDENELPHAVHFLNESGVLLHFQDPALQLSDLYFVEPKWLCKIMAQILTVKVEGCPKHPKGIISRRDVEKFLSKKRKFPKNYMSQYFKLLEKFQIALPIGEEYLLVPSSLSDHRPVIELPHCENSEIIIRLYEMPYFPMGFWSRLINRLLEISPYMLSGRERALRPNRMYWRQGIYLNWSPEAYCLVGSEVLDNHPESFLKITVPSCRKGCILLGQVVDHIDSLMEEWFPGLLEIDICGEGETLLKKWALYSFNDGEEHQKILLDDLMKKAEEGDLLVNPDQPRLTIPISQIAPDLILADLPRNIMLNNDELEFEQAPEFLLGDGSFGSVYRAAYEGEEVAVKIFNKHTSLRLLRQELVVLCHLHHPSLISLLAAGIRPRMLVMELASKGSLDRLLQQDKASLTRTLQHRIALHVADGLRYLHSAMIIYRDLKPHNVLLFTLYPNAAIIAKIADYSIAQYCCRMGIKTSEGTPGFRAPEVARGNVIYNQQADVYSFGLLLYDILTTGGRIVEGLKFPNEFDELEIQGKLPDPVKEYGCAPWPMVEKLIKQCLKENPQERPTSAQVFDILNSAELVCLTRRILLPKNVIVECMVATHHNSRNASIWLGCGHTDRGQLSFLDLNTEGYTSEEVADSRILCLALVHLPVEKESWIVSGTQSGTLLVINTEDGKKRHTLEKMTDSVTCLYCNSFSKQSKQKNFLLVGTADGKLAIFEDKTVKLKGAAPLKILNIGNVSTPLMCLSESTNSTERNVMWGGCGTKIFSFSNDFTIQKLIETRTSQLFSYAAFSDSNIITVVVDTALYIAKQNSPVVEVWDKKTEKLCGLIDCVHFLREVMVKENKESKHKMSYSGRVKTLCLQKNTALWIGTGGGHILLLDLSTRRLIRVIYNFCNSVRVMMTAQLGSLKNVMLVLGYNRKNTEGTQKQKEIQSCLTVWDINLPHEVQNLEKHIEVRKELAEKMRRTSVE
Chain of PRKG1 (human) (Q13976 whole entry, looked up): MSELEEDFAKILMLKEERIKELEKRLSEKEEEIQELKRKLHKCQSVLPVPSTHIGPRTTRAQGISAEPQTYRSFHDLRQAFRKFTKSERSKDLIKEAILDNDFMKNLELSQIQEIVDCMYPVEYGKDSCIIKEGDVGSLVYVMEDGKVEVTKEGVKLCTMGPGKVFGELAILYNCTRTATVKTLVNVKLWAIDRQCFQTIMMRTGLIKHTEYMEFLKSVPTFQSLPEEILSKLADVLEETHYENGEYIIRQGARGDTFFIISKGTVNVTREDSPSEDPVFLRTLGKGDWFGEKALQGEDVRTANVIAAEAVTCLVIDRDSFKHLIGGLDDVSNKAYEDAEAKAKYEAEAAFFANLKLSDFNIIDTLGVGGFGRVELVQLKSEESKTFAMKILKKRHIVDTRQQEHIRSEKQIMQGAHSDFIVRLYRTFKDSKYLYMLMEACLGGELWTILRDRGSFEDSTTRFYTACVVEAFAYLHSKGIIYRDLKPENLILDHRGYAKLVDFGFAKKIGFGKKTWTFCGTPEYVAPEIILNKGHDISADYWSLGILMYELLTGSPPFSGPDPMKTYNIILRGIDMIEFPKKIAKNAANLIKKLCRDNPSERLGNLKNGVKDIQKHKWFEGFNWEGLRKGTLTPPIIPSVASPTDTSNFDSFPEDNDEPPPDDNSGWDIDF
Chain of NEK6 (human) (Q9HC98 whole entry, looked up): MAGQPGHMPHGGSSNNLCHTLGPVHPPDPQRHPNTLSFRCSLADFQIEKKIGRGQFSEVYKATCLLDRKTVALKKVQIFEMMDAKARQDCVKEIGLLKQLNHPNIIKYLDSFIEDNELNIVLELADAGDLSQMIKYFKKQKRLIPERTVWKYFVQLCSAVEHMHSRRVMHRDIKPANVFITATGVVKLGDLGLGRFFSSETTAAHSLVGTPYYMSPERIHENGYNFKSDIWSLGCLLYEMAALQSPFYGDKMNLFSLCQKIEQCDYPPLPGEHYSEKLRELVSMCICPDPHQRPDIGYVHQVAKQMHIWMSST

For `CCC(=O)N1CCN(c2ccc(-n3c(=O)ccc4cnc5ccc(-c6cnc7ccccc7c6)cc5c43)cc2C(F)(F)F)CC1`, the kinase still bound, per cent of control [1] was 100%, the kinase still bound, per cent of control (ADCK4 (human)) was 15% and the per cent of control (CDK15 (human)) was 88%. For the same compound, the kinase still bound, per cent of control (CIT (human)) was 59%, the kinase still bound, per cent of control (CPK1 (P.falciparum)) was 36% and the kinase still bound, per cent of control (DMPK (human)) was 77%. It also gave a kinase still bound, per cent of control (DYRK2 (human)) of 86%, a kinase still bound, per cent of control (EPHB6 (human)) of 80% and a kinase still bound, per cent of control (ERN1 (human)) of 100%. The kinase still bound, per cent of control (GRK4 (human)) was 90%, the kinase still bound, per cent of control (INSR (human)) was 7.6% and the kinase still bound, per cent of control (LCK (human)) was 77%. The kinase still bound, per cent of control (LIMK2 (human)) was 4.8%, the kinase still bound, per cent of control [2] was 99% and the kinase still bound, per cent of control (MAP3K9 (human)) was 84%. For the same compound, the kinase still bound, per cent of control (MAP4K2 (human)) was 35%, the kinase still bound, per cent of control (MAP4K4 (human)) was 5.2% and the kinase still bound, per cent of control (MYO3A (human)) was 100%. It also gave a kinase still bound, per cent of control (NEK6 (human)) of 99%, a kinase still bound, per cent of control (NUAK1 (human)) of 100% and a kinase still bound, per cent of control (PAK4 (human)) of 100%. The kinase still bound, per cent of control (PIK3C2B (human) [3]) was 25%, the kinase still bound, per cent of control (PKN2 (human)) was 65% and the kinase still bound, per cent of control (PRKAA2 (human)) was 74%. For the same compound, the kinase still bound, per cent of control (PRKCD (human)) was 82%, the kinase still bound, per cent of control (PRKG1 (human)) was 86% and the kinase still bound, per cent of control (ROS1 (human)) was 71%. The kinase still bound, per cent of control (RPS6KA5 KD1 (human)) was 100%, the kinase still bound, per cent of control (STK25 (human)) was 84% and the kinase still bound, per cent of control (STK32A (human)) was 100%. The kinase still bound, per cent of control (STK38 (human)) was 100%, the kinase still bound, per cent of control (SYK (human)) was 78% and the IC50 (PI4KA (human)) was > 10 µM.
Work on `COC(=O)Nc1ccc(-c2nc(N3CCOCC3)c3cnn(C4CCN(C(=O)OC)CC4)c3n2)cc1` yielded a kinase still bound, per cent of control [1] of 100%, a kinase still bound, per cent of control (ADCK4 (human)) of 73% and a kinase still bound, per cent of control (BTK (human)) of 99%. It also gave a per cent of control (CDK15 (human)) of 100%, a kinase still bound, per cent of control (CIT (human)) of 98% and a kinase still bound, per cent of control (CPK1 (P.falciparum)) of 100%. The kinase still bound, per cent of control (CSNK1A1 (human)) was 100%, the kinase still bound, per cent of control (DMPK (human)) was 100% and the kinase still bound, per cent of control (DYRK2 (human)) was 82%. The kinase still bound, per cent of control (EPHB6 (human)) was 97%, the kinase still bound, per cent of control (ERN1 (human)) was 100% and the kinase still bound, per cent of control (GRK4 (human)) was 100%. For the same compound, the kinase still bound, per cent of control (INSR (human)) was 72%, the kinase still bound, per cent of control (LCK (human)) was 88% and the kinase still bound, per cent of control (LIMK2 (human)) was 94%. The kinase still bound, per cent of control [2] was 80%, the kinase still bound, per cent of control (MAP3K9 (human)) was 100% and the kinase still bound, per cent of control (MAP4K2 (human)) was 100%. The kinase still bound, per cent of control (MAP4K4 (human)) was 88%, the kinase still bound, per cent of control (MTOR (human)) was 0% and the kinase still bound, per cent of control (MYO3A (human)) was 100%. The kinase still bound, per cent of control (NEK6 (human)) was 100%, the kinase still bound, per cent of control (NUAK1 (human)) was 72% and the kinase still bound, per cent of control (PAK4 (human)) was 100%. The kinase still bound, per cent of control (PIK3C2B (human) [3]) was 100%, the kinase still bound, per cent of control (PKN2 (human)) was 100% and the kinase still bound, per cent of control (PRKAA2 (human)) was 100%. The kinase still bound, per cent of control (PRKCD (human)) was 99%, the kinase still bound, per cent of control (PRKG1 (human)) was 100% and the kinase still bound, per cent of control (ROS1 (human)) was 76%. For the same compound, the kinase still bound, per cent of control (RPS6KA5 KD1 (human)) was 100%, the kinase still bound, per cent of control (SRPK3 (human)) was 100% and the kinase still bound, per cent of control (STK25 (human)) was 78%. It also gave a kinase still bound, per cent of control (STK32A (human)) of 100%, a kinase still bound, per cent of control (STK38 (human)) of 88% and a kinase still bound, per cent of control (SYK (human)) of 83%. For the same compound, the IC50 (PI4KA (human)) was > 3.33 µM, the IC50 (PI4KB (human)) was > 10 µM and the IC50 (PIK3C2A (human)) was > 10 µM. For the same compound, the IC50 (PIK3C2B (human) [4]) was 5.15 µM and the IC50 (PIK3C3 (human)) was > 10 µM.
